Article PMC10762035, “Molecular basis of human trace amine-associated receptor 1 activation” (Nature Communications, 2024)
Substitutions are numbered along the chain they refer to. Values joined by “and” are separate entries in the source; they are usually repeats but may differ in a detail not shown here. Equal entries are not always repeated.

Columns and labels:
Format in all cases: cell-based
hTA1 T271A = molecular target: T1, hTA1 T271A (Homo sapiens, UniProt Q96RJ0, T271A); experiment: GloSensor cAMP accumulation assay, T271A mutant
T1 construct: expressed in transfected cells; host or cells: HEK293T
T1 sequence (Q96RJ0 1-339 T271A): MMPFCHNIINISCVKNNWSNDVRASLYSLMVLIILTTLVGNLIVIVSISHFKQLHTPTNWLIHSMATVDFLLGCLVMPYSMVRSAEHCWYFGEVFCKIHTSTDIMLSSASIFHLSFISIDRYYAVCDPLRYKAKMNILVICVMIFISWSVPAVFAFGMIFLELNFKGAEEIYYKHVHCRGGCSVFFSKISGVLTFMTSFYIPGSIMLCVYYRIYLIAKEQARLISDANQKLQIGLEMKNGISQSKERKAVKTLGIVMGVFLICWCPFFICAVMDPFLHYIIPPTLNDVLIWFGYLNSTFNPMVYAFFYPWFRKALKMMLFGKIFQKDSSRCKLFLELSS

hTA1 = molecular target: T2, hTA1 (Homo sapiens, UniProt Q96RJ0); experiment: Screen of 89 aminergic compounds at 10 µM, cAMP accumulation in HEK293T cells; settings: 10 µM of compound; HEK293T; threshold log2-fold change of 2;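 note: HEK293T cells co-transfected with hTA1 and GloSensor cAMP reporter, cAMP accumulation detected by luminescence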
T2 construct: expressed in transfected cells; host or cells: HEK293T
T2 sequence (Q96RJ0 1-339): T1 sequence (Q96RJ0 1-339 T271A) with A271T

hTA1 I290Y = molecular target: T3, hTA1 I290Y (Homo sapiens, UniProt Q96RJ0, I290Y); experiment: GloSensor cAMP accumulation assay, I290Y mutant; settings: for Normalized Luminescence Counts for Concentration Response Curves: I120Y, log[Agonist], single replicates; for cAMP accumulation response, normalized (concentration-response source data, single replicate values): hTA1 I290Y (N=3), log[Compound];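 for cAMP accumulation response, normalized (concentration-response source data, single replicate values): normalized to the maximum response of β-PEA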
T3 construct: expressed in transfected cells; host or cells: HEK293T
T3 sequence (Q96RJ0 1-339 I290Y): T1 sequence (Q96RJ0 1-339 T271A) with A271T, I290Y

hTA1 C88S = molecular target: T4, hTA1 C88S (Homo sapiens, UniProt Q96RJ0, C88S); experiment: GloSensor cAMP accumulation assay, C88S mutant; settings: C88S
T4 construct: expressed in transfected cells; host or cells: HEK293T
T4 sequence (Q96RJ0 1-339 C88S): T1 sequence (Q96RJ0 1-339 T271A) with C88S, A271T

NCCc1ccccc1 [β-PEA, β-phenethylamine]
reduction in potency vs wild type (hTA1 T271A; T271A): about 10 fold
ΔpEC50 values (each mutant value - WT average), Mean (hTA1 T271A; T271A mutant minus WT average, Figure 5B): -1.015 and -0.8638
pEC50 values, Mean (hTA1 T271A; T271A mutant, Figure 5B, each row one independent experiment (3 replicates)): 6.079 and 6.23
Emax values, Mean (hTA1 T271A; T271A mutant, Figure 5B, β-PEA = 100, each row one independent experiment (3 replicates)): 100
Span ± SEM (Emax normalized to β-PEA) (hTA1 T271A; T271A, n=2): 100 ± 2.03
pEC50 ± SEM (hTA1 T271A; T271A, n=2): 6.15 ± 0.03
EC50 (hTA1 T271A; T271A, n=2, read-out: EC50): 701 nM
increase of signal over DMSO-treated controls (hTA1 activation) (hTA1): ≥ 4 fold
Normalized Luminescence Counts for Concentration Response Curves (hTA1 I290Y; M -5): 106.77 and 91.3809 and 125.546 and 108.456 and 111.021 and 107.357 and 101.946 and 94.0497 and 113.225
Normalized Luminescence Counts for Concentration Response Curves (hTA1 I290Y; M -6): 87.3796 and 52.2914 and 77.8381 and 75.4765 and 68.8807 and 65.9492 and 71.4902 and 68.1063 and 59.0825
Normalized Luminescence Counts for Concentration Response Curves (hTA1 I290Y; M -7): 31.0537 and 19.6655 and 31.3615 and 25.6411 and 22.3431 and 26.3739 and 25.2433 and 15.0915 and 12.8355
Normalized Luminescence Counts for Concentration Response Curves (hTA1 I290Y; M -8): 5.199 (2×) and 2.121 and 24.1753 and 3.655 and 1.823 and 1.556 and -1.828 and -0.7002
Normalized Luminescence Counts for Concentration Response Curves (hTA1 I290Y; M -9): -0.341 (2×) and -2.496 and 2.189 and -2.575 and -4.773 and 0.4278 and -1.828 and -2.956
Normalized Luminescence Counts for Concentration Response Curves (hTA1 I290Y; M -10): -0.0332 (2×) and -1.88 and -5.873 and -4.407 and -4.773 and 2.684 and -1.828 and -0.7002
Normalized Luminescence Counts for Concentration Response Curves (hTA1 I290Y; M -11): 0.5824 (2×) and -1.264 and -5.506 and -5.14 and -3.674 and -1.828 (3×)
Normalized Luminescence Counts for Concentration Response Curves (hTA1 I290Y; M -12): 1.506 and -1.88 and -0.341 and -3.674 and -4.773 and 8.4185 and 1.556 (2×) and 2.684
Span ± SEM (Emax normalized to β-PEA) (hTA1 I290Y; I290Y): 100 ± 3.64
pEC50 ± SEM (hTA1 I290Y; I290Y): 6.43 ± 0.07
ΔEmax values (each mutant value - WT average) (hTA1 I290Y; I290Y minus WT average): 0
ΔpEC50 values (each mutant value - WT average), Mean (hTA1 I290Y; I290Y minus WT average): -0.6326 and -0.5624 and -0.7969
EC50 (hTA1 I290Y; I290Y, read-out: EC50): 372 nM
pEC50 values, Mean (hTA1 I290Y; I290Y, single experiments (3 replicates each)): 6.461 and 6.531 and 6.297
Emax values, Mean (hTA1 I290Y; I290Y, single experiments (3 replicates each), β-PEA = 100): 100
cAMP accumulation response, normalized (concentration-response source data, single replicate values) (hTA1 I290Y; M = -5): 106.77 and 91.3809 and 125.546 and 108.456 and 111.021 and 107.357 and 101.946 and 94.0497 and 113.225
cAMP accumulation response, normalized (concentration-response source data, single replicate values) (hTA1 I290Y; M = -5.522): 77.8381 and 72.2978 and 82.1471 and 73.6443 and 85.0039 and 85.3703 and 81.642 and 86.1539 and 57.9545
cAMP accumulation response, normalized (concentration-response source data, single replicate values) (hTA1 I290Y; M = -6): 87.3796 and 52.2914 and 77.8381 and 75.4765 and 68.8807 and 65.9492 and 71.4902 and 68.1063 and 59.0825
cAMP accumulation response, normalized (concentration-response source data, single replicate values) (hTA1 I290Y; M = -6.522): 54.4459 and 35.6706 and 50.4446 and 60.0862 and 56.7882 and 48.7266 and 47.8027 and 37.651 (2×)
cAMP accumulation response, normalized (concentration-response source data, single replicate values) (hTA1 I290Y; M = -7): 31.0537 and 19.6655 and 31.3615 and 25.6411 and 22.3431 and 26.3739 and 25.2433 and 15.0915 and 12.8355
cAMP accumulation response, normalized (concentration-response source data, single replicate values) (hTA1 I290Y; M = -7.522): 12.5863 and 7.662 and 9.508 and 11.7164 and 13.1822 and 20.5109 and 7.196 and 4.9397 and 3.812
cAMP accumulation response, normalized (concentration-response source data, single replicate values) (hTA1 I290Y; M = -8): 5.199 (2×) and 2.121 and 24.1753 and 3.655 and 1.823 and 1.556 and -1.828 and -0.7002
cAMP accumulation response, normalized (concentration-response source data, single replicate values) (hTA1 I290Y; M = -8.522): 0.8902 and -1.264 and -0.0332 and -1.109 and -1.842 and -4.04 and 0.4278 and -2.956 and -0.7002
cAMP accumulation response, normalized (concentration-response source data, single replicate values) (hTA1 I290Y; M = -9): -0.341 (2×) and -2.496 and 2.189 and -2.575 and -4.773 and 0.4278 and -1.828 and -2.956
cAMP accumulation response, normalized (concentration-response source data, single replicate values) (hTA1 I290Y; M = -9.522): -0.9566 and -2.803 and -1.264 and -1.109 and -0.7424 and -1.475 and 0.4278 and -4.0841 and -0.7002
cAMP accumulation response, normalized (concentration-response source data, single replicate values) (hTA1 I290Y; M = -10): -0.0332 (2×) and -1.88 and -5.873 and -4.407 and -4.773 and 2.684 and -1.828 and -0.7002
cAMP accumulation response, normalized (concentration-response source data, single replicate values) (hTA1 I290Y; M = -10.522): -0.6488
Emax values (hTA1 C88S; Mean of fit per experiment): 100
pEC50 values (hTA1 C88S; Mean of fit per experiment): 7.013 and 7.137
Span ± SEM (Emax normalized to β-PEA) (hTA1 C88S; n=2): 100 ± 2.93
pEC50 ± SEM (hTA1 C88S; n=2): 7.08 ± 0.06
EC50 (hTA1 C88S; n=2, read-out: EC50): 84.1 nM
